The record followed here is patent US6001880A, “Alkylenediamine derivative, anti-ulcer drug, and antibacterial drug” (Shiseido Co., Ltd., priority 1997, dated 1999).

Data set [1] has as its system stress ulcer formation in rats. The data set can be described thus: WIS: Restraint and Water Immersion Stress-Induced Ulcer Inhibition Test. It is filed as in vivo, rat (male Crj:SD or Slc:SD). Conditions: 100 mg/kg oral, 10 minutes before 7 h restraint and water immersion (21° C.). As for the experimental part:
WIS: Restraint and Water Immersion Stress-Induced Ulcer Inhibition Test
The degree of inhibition of the stress ulcer formation is tested.
Male Crj:SD or Slc:SD rats (6 to 7-week-old) were fasted overnight, but allowed free access to water. Each group has 5 to 8 of these rats. The sample compound was dissolved or suspended in an aqueous solution of 0.3% sodium carboxymethylcellulose or 0.05% Tween 80 and then was orally administered (100 mg/10 ml/kg). To a control group, the vehicle was administered. 10 minutes later, the rats were placed in a stress cage and immersed to the level of xipfoid process in a water bath (21° C.) for 7 hours. At the end of the stress, the rats were sacrificed by inhalation of ether or carbon dioxide. Then, the stomach of each was removed, inflated by injecting 10 ml of 5% formalin neutral buffer solution, and immersed in 1% formalin neutral buffer solution for 30 minutes or more to be fixed. The stomach was incised along the greater curvature and then the length of each erosion in the glandular portion was determined under dissecting microscope. The sum of the length of erosions per stomach was defined as ulcer index (UI).
The effect obtained when 100 mg/kg of the sample compound had been administered was expressed as ulcer formation inhibitory rate (%) as follows:
ulcer formation inhibitory rate (%)=(1-(UI in sample group/UI in control

In data set [2] the test system is isolated gastric fundic gland. The data set can be described thus: CAP: Acid Secretion Inhibition Test In Vitro ([14C]-aminopyrine uptake). It counts as cell-based, rabbit (male Japanese White). Conditions: Oryctolagus cuniculus; final concentration 10^-5 M; histamine 10^-5 M stimulation; read-out: CAP: acid secretion inhibitory rate. As for the experimental part:
CAP: Acid Secretion Inhibition Test In Vitro
The acid secretion inhibitory activity in a cell level is studied. It can also be used for studying the mechanism of the effect.
First, an isolated gastric fundic gland sample was prepared. Namely, a male Japanese White rabbit (2.5 to 3 kg) was anesthetized to death with Nembutal™ and then the abdomen was incised. Immediately thereafter, the stomach was removed and, after its pyloric and cardiac antrum were severed, incised along its greater curvature into two sheets. The gastric contents adhering to the mucosal surface was washed out with ice-cooled PBS (-) and then carefully washed therein. The gastric wall was spread on a cork board with its mucosal surface facing up and the feed and mucus thereon were completely removed with sterile gauze. The mucosa was separated therefrom by a spatula and then collected in ice-cooled PBS (-). After being washed twice with PBS (-), the mucosa was minced into 2-3 mm^3 pieces by scissors. These pieces were further washed twice with a nutrient solution. The nutrient solution comprises 132.4 mM of NaCl, 5.4 mM of KCl, 5 mM of Na2 HPO4. 12H2 O, 1 mM of NaH2 PO4.2H2 O, 1.2 mM of MgSO4, 1 mM of CaCl2, 25 mM of HEPES, 2 mg/ml of glucose, and 1 mg/ml of BSA.
Into 70 ml of the nutrient solution containing 1 mg/ml of collagenase, minced mucosal pieces were dispersed and intensely stirred in a conical flask with a stirrer at 37° C. for 40 to 60 minutes. During this period, 100% O2 was sprayed on the nutrient solution surface and the pH was appropriately measured such that it was immediately adjusted to pH 7.4, when the value was therebelow, with a base. The nutrient solution was added to the reaction solution so as to attain the total amount of about 200 ml. After being filtered through a mesh, the suspension was divisionally introduced into 50 ml centrifuge tubes and left for 15 minutes such that gastric fundic gland was deposited. The supernatant was repeatedly removed by an aspirator, dispersed in the nutrient solution, and then left such that the gastric fundic gland was washed three times. At this time, without using a pipette, the suspension was alternately introduced into two centrifuge tubes so as to effect dispersion. The number of cells was counted under microscope and adjusted to 1.6×10^6 cells/ml.
Then, [^14 C]-aminopyrine uptake test was performed. After an Eppendorf tube was weighed, 10 μl (final concentration: 10^-5 M) of histamine dissolved in the above-mentioned nutrient solution, 10 μl (final concentration: […]) of the test compound dissolved in DMSO, and 10 μl (final concentration: 0.05 μCi/ml) of [^14 C]-aminopyrine diluted with the nutrient solution were introduced therein and then 970 μl of the isolated gastric fundic gland suspension prepared above was added thereto. Subsequently, this mixture was shaken at 37° C. for 40 minutes at 125 cycles/minute. After being centrifuged for 30 seconds, 200 μl of its supernatant was collected into a mini-vial, while the rest was removed by an aspirator. The gland pellet was completely dried as the tube with its lid being opened was kept for one night in a drying oven at 80° C. and then the lid was closed and the weight was determined at room temperature. Then 100 μl of 1N KOH was added thereto and the tube with its lid being closed was treated at 60° C. for 1 to 2 hours so as to dissolve the pellet. Then, the contents thereof were transferred to a mini-vial. Into the mini-vial containing the supernatant or gland pellet, 4 ml of Atomlite™ was added and then the radioactivity was measured by a liquid scintillation counter. Here, after the radioactivity of the gland pellet was corrected by using a sample in which 20 mM of NaSCN was added so as to cancel the hydrogen ion concentration gradient, the integration ratio of aminopyrine specifically trapped by the gland pellet was calculated. This experiment was performed in duplicate.
Here, its principle will be briefly explained. […]

For data set [3], the system named is mice. On the set-up: species or system mouse (male Slc:ICR). To be noted: mouse, in vivo. As to the method:
AT: Single Dose Toxicity Pretest
Male Slc:ICR mice (5-week-old) were used. Each group has 3 to 5 mice and each mouse was fasted, but allowed free access to water, for 4 to 5 hours from 9 a.m. in the test day. Then, 2,000 mg/10 ml/kg of the sample compound dissolved or suspended in an aqueous solution of 0.5% sodium carboxymethyl cellulose was orally administered thereto. To a control, only the vehicle was administered. […] The body weight was measured before and after the fasting as well as at the same time everyday. The dead animals were immediately subjected to autopsy and their organs were observed by naked eyes. Also, the living animals were sacrificed with ether or carbon dioxide one week after the administration and then their organs were observed by naked eyes.
The toxicity at the single dose of 2,000 mg/kg of the sample compound was expressed as being classified into 5 levels.
5: mortality rate is 0%; no toxicity is found at all both in behavior and organs.
4: Mortality rate is 0%; while no toxicity is found in organs, slight toxicity is observed in behavior or body weight increase.
3: While there is a dead animal (though not all the animals are dead), no toxicity is found in organs.
2: Regardless of whether there is a dead animal or not, toxicity is found in organs.
1: All the animals are dead.

Data set [4] is described as follows: MTT: Cell Damaging and Protecting Effect Test. To be noted: rabbit, gastric corpus mucosa cells, final concentration 10^-4 M, smaller value is better, read-out: MTT: cell damaging rate. It counts as cell-based, rabbit (male Japanese White). An excerpt: MTT: Cell Damaging and Protecting Effect Test
It is confirmed that there is no toxicity in cell level. Those having a toxicity in cell level are inappropriate as an anti-ulcer drug.
A male Japanese White rabbit (2.5 to 3 kg) was anesthetized to death by Nembutal™ and, immediately thereafter, its stomach was removed. The greater curvature of the stomach was incised so as to remove the stomach contents therefrom. After the mucosal surface was washed with HBSS (Hanks' Balanced Salt Solution), the stomach in ice-cooled HBSS was transferred to a laboratory. Then, after the pyloric antrum was removed, the gastric corpus mucosa was separated by a spatula and then minced into 2 to 3 mm^3 pieces in BME (Basal Medium Eagle). Thereafter, these pieces were shaken at 120 to 130 cycles/minute for 15 minutes at 37° C. in BME 60 ml containing 280 U/ml of dispase and 30 to 50 U/ml of collagenase. Here, the concentration of collagenase was appropriately changed for each lot in view of the state of cells. The pieces were washed twice with EBSS (Earle's Balanced Salt Solution) containing 1 mM of EDTA and then shaken in MEM (Minimum Essential Medium) containing 1 mM of EDTA at 37° C. for 5 minutes. Subsequently, they were shaken in the dispase and collagenase having the same concentrations as those mentioned above for 15 minutes so as to remove the supernatant and then further shaken at 37° C. for 50 to 60 minutes at 120 to 130 cycles/minute. Then, after being washed twice with HBSS, Ham F12 containing 2% of Ultrocer G™ was used to attain the concentration of 1×10^6 cells/ml. Thus formed suspension was dispensed in each well of a 96-well plate by 200 μl. The plate was incubated in the atmosphere composed of 5% CO2 and 95% air at 37° C. for three days so as to attain a confluent state and then subjected to MTT assay.
The sample compound was dissolved in DMSO so as to attain a concentration of 10^-2 M and then diluted with HBSS containing 2% of Ultrocer G™ so as to attain a final concentration of 10^-4 M. To each group, which 8 wells were used for, 10 μl of MTT reagent was added immediately after 100 μl of the medium in each well was exchanged for same volume of the resulting solution of the sample compound. After being incubated in an atmosphere composed of 5% CO2 and 95% air at 37° C. for 4 hours, thus formed solution was centrifuged and then its supernatant was discarded. Subsequently, 100 μl of 100% ethanol was added to the residue so as to dissolve MTT formazan. Then, the absorbance (OD: 570 to 630) was measured by a microplate reader. This method utilizes a phenomenon in which MTT is changed to MTT formazan only by mitochondria of living cells so as to change color.
The cell damaging or cell protecting effect of the sample compound at the final concentration of 10^-4 M was expressed as cell damaging rate (%) as follows:
cell damaging rate (%)=(1-(absorbance in sample group/absorbance in control
Accordingly, the smaller value is better in the cell damaging rate.

Turning to `CCN(CC)CCNC(=O)c1ccc(OC/C=C(\C)CCC=C(C)C)c(OC)c1` [Example 30], the “WIS: ulcer formation inhibitory rate” value in data set [1] was found to be 84%. The inhibition at 10 µM in data set [2] came to 100%. In addition, in data set [3], the “AT: single dose toxicity level” value is on record as 5.

In the case of `CCN(CC)CCNC(=O)c1cc(OC)c(OC)c(OC/C=C(\C)CCC=C(C)C)c1` [Example 39], in data set [1], the “WIS: ulcer formation inhibitory rate” value stood at 87%. The “AT: single dose toxicity level” value in data set [3] was 4.

In the case of `CCN(CC)CCNC(=O)c1ccc(OCC=C(C)C)nc1` [Example 46], in data set [1], the “WIS: ulcer formation inhibitory rate” value is reported as 65%. Moreover, in data set [4], the cytotoxicity at 4 h, 100 µM is -3%. The “AT: single dose toxicity level” value in data set [3] amounted to 3.

As to `CC(C)=CCOc1ccc(C(=O)NCCN(C(C)C)C(C)C)cn1` [Example 48], the “WIS: ulcer formation inhibitory rate” value in data set [1] was 75%. The cytotoxicity at 4 h, 100 µM in data set [4] is -13%. Besides, the “AT: single dose toxicity level” value in data set [3] came out at 3.

With `CCN(CC)CCNC(=O)c1ccc(OC/C=C(\C)CCC=C(C)C)nc1` [Example 50], the “WIS: ulcer formation inhibitory rate” value in data set [1] is on record as 42%. Besides, the inhibition at 10 µM in data set [2] came out at 95.2%. The cytotoxicity at 4 h, 100 µM in data set [4] is 4%.

`CC(C)=CCC/C(C)=C/COc1ccc(C(=O)NCCN(C(C)C)C(C)C)cn1` [Example 51]: the “WIS: ulcer formation inhibitory rate” value in data set [1] was determined as 72%. For the same molecule, in data set [2], the inhibition at 10 µM worked out at 94.7%. Further, the cytotoxicity at 4 h, 100 µM in data set [4] came out at 15%.

Take `CCN(CC)CCNC(=O)c1ccc(CC(C)C)c(O)c1` [Example 56]: the “WIS: ulcer formation inhibitory rate” value in data set [1] came out at 69%. Besides, the inhibition at 10 µM in data set [2] amounted to 53.4%. In data set [4], the cytotoxicity at 4 h, 100 µM is 11%.

Take `CC(C)Cc1cc(C(=O)NCCN(C(C)C)C(C)C)ccc1OCc1ccc(F)cc1` [Example 57]: in data set [1], the “WIS: ulcer formation inhibitory rate” value is 45%. Besides, the inhibition at 10 µM in data set [2] amounted to 100%. For the same molecule, in data set [4], the cytotoxicity at 4 h, 100 µM came to 43%.

In the case of `CC(C)Oc1ccc(C(=O)NCCN(C(C)C)C(C)C)cc1` [Example 59], in data set [1], the “WIS: ulcer formation inhibitory rate” value came to 89%. Moreover, the inhibition at 10 µM in data set [2] came out at 47.5%. Moreover, the cytotoxicity at 4 h, 100 µM in data set [4] is 39%.

On to `CCCCCc1ccc(C(=O)NCCN(C(C)C)C(C)C)cc1` [Example 62], for which, in data set [1], the “WIS: ulcer formation inhibitory rate” value is reported as 72%. In data set [2], the inhibition at 10 µM was determined as 101%. Moreover, in data set [4], the cytotoxicity at 4 h, 100 µM was determined as 40%.

For `CC(C)c1ccc(C(=O)NCCN(C(C)C)C(C)C)cc1` [Example 64], in data set [1], the “WIS: ulcer formation inhibitory rate” value was 82%. For the same molecule, the inhibition at 10 µM in data set [2] stood at 72.7%. Moreover, the cytotoxicity at 4 h, 100 µM in data set [4] was 39%.

Turning to `CC(C)N(CCNC(=O)c1cccc(CN2CCCCC2)c1)C(C)C` [Example 66], in data set [1], the “WIS: ulcer formation inhibitory rate” value came out at 53%. Besides, in data set [2], the inhibition at 10 µM was determined as 38.3%. For the same molecule, in data set [4], the cytotoxicity at 4 h, 100 µM stood at 12%.

With `CC(C)N(CCNC(=O)c1ccc(NC(=O)C(C)(C)C)cc1)C(C)C` [Example 69], the “WIS: ulcer formation inhibitory rate” value in data set [1] was found to be 95%. Besides, the inhibition at 10 µM in data set [2] came out at 31.5%. In data set [4], the cytotoxicity at 4 h, 100 µM was 35%.
